For data set [1] the following is noted: in treated test animals; cited from earlier work.
A short description of data set [2]: adsorption onto glass container in liquid form. In kind it is physicochemical. An excerpt:
However, with regard to compounds Which do have such a tendency when in liquid final, a surfactant should be used in their formulation. These formulations may then be lyophilized. Surfactants frequently cause denaturation of protein, both of hydrophobic disruption and by salt bridge separation. Relatively low concentrations of surfactant may exert a potent denaturing activity, because of the strong interactions between surfactant moieties and the reactive sites on proteins. However, judicious use of this interaction can stabilize proteins against interfacial or surface denaturation. Surfactants which could further stabilize the peptide may optionally be present in the range of about 0.001 to 0.3% (w/v) of the total formulation and include polysorbate 80 (i.e., polyoxyethylene(20) sorbitan monooleate), CHAPS® (i.e., 3-[(3-Cholamidopropyl)dimethylammonio]propanesulfonic acid), BRIJ® (e.g., Brij 35, which is (polyoxyethylene(23) lauryl ether), poloxamer, or another non-ionic surfactant.

The conditions of data set [3]: compared to human amylin; cited from earlier work.
Data set [4] has as its system cloned GLP-1 receptor. The note with it: cells transfected with the cloned GLP-1 receptor; cited from earlier work.
For data set [5], the system named is T2DM patients. The note with it: head-to-head comparator trial; cited from earlier work.

No end group written: not given here.

Regarding `CC[C@H](C)[C@H](NC(=O)[C@@H]1CCCN1C(=O)CNC(=O)[C@H](Cc1ccccc1)NC(=O)[C@H](CC(N)=O)NC(=O)[C@H](CC(N)=O)NC(=O)[C@H](CO)NC(=O)[C@H](CO)NC(=O)[C@H](Cc1c[nH]cn1)NC(=O)[C@@H](NC(=O)[C@H](CC(C)C)NC(=O)[C@H](Cc1ccccc1)NC(=O)[C@H](CC(N)=O)NC(=O)[C@H](C)NC(=O)[C@H](CC(C)C)NC(=O)[C@H](CCCNC(=N)N)NC(=O)[C@H](CCC(N)=O)NC(=O)[C@@H](NC(=O)[C@H](C)NC(=O)[C@@H]1CSSC[C@H](NC(=O)[C@@H](N)CCCCN)C(=O)N[C@@H](CC(N)=O)C(=O)N[C@@H]([C@@H](C)O)C(=O)N[C@@H](C)C(=O)N[C@@H]([C@@H](C)O)C(=O)N1)[C@@H](C)O)C(C)C)C(=O)N[C@@H](CC(C)C)C(=O)N1CCC[C@H]1C(=O)N1CCC[C@H]1C(=O)N[C@H](C(=O)N[C@@H](CC(N)=O)C(=O)N[C@H](C(=O)NCC(=O)N[C@@H](CO)C(=O)N[C@@H](CC(N)=O)C(=O)N[C@H](C(=O)N[C@@H](Cc1ccc(O)cc1)C(N)=O)[C@@H](C)O)C(C)C)[C@@H](C)O` [^25,28,29Pro-h-amylin, reference compound], the amylin activity result in data set [1] is listed as “amylin activity in vivo”. The “tendency to adsorb onto the glass” value in data set [2] is reported as “does not have a tendency to adsorb onto the glass”.
For the molecule “^18Arg^25,28Pro-h-amylin (KCNTATCATQRLANFLVRSSNNFGPILPSTNVGSNTY) [amylin agonist analog]”, the amylin activity result in data set [1] is given as “amylin activity in vivo”. Besides, in data set [3], the “solubility and stability characteristics” value is “more desirable solubility and stability characteristics”.
Turning to “^25Pro^26Val^28,29Pro-h-amylin (KCNTATCATQRLANFLVHSSNNFGPVLPPTNVGSNTY) [amylin agonist analog]”, the “solubility and stability characteristics” value in data set [3] is “more desirable solubility and stability characteristics”.
For “^28Pro-h-amylin (KCNTATCATQRLANFLVHSSNNFGAILPSTNVGSNTY) [amylin agonist analog]”, in data set [1], the amylin activity result is listed as “amylin activity in vivo”.
For the molecule “des-^1Lys-h-amylin (CNTATCATQRLANFLVHSSNNFGAILSSTNVGSNTY; ends and bridges not checked; cysteine pairing not given here; UniProt P10997 34-70, looked up, variant K1*) [amylin agonist analog]”, the amylin activity result in data set [1] is “amylin activity in vivo”.
Turning to des-^1Lys^18Arg^25,28Pro-h-amylin, the amylin activity result in data set [1] is “amylin activity in vivo”.
As to exendin[9-39], in data set [4], the “functional activity (cAMP)” value is listed as “antagonist”.
insulin glargine: in data set [5], the HbA1c reductions is recorded as about 1.1% and the weight gain is about 1.8 kg.

Source of the values: patent US8389472B2, “Exendin-4 to treat nonalcoholic steatohepatitis and nonalcoholic fatty liver disease” (Amylin Pharmaceuticals, LLC, priority 2005, dated 2013).
